Assay results from PMC3853768 (Molecular Pain, 2013).
“Also recorded” adds a separate entry of the source. Positions of bridges follow the written chain, without caps; N, C: chain ends. Residues, ends and D or L forms follow the SMILES beside them.

Experiments:
[1] = system: CFA-injected mice (C57 Bl6); settings: mouse, in vivo
[2] = system: N-type VGCCs over the P/Q-type (Cav2.1); settings: cited from earlier work
[3] = biological target: T1, N-type calcium currents (Cav2.2), mouse DRG neurons (Mus musculus, UniProt O55017); type: cell-based
[4] = system: CFA-injected mice (C57 Bl6); settings: mouse, in vivo; remark: listed apart in the source
naïve mice (C57Bl/6j) [5] = settings: mouse, in vivo, sc, 2 mg/kg
[6] = biological target: T1, N-type calcium currents (Cav2.2), mouse DRG neurons; type: cell-based; remark: listed apart in the source
Cav2.2 channel = settings: cited from earlier work
mice (C57 Bl6) = settings: mouse, in vivo, sc
rat = settings: in vivo, iv; cited from earlier work
naïve mice (C57Bl/6j) [7] = settings: mouse, in vivo, sc, 2 mg/kg; remark: listed apart in the source
[8] = system: N-type calcium channels with auxiliary subunits; settings: cited from earlier work
[9] = system: excitatory monosynaptic transmission in the dorsal horn of the spinal cord; settings: cited from earlier work

T1 sequence (O55017 whole entry): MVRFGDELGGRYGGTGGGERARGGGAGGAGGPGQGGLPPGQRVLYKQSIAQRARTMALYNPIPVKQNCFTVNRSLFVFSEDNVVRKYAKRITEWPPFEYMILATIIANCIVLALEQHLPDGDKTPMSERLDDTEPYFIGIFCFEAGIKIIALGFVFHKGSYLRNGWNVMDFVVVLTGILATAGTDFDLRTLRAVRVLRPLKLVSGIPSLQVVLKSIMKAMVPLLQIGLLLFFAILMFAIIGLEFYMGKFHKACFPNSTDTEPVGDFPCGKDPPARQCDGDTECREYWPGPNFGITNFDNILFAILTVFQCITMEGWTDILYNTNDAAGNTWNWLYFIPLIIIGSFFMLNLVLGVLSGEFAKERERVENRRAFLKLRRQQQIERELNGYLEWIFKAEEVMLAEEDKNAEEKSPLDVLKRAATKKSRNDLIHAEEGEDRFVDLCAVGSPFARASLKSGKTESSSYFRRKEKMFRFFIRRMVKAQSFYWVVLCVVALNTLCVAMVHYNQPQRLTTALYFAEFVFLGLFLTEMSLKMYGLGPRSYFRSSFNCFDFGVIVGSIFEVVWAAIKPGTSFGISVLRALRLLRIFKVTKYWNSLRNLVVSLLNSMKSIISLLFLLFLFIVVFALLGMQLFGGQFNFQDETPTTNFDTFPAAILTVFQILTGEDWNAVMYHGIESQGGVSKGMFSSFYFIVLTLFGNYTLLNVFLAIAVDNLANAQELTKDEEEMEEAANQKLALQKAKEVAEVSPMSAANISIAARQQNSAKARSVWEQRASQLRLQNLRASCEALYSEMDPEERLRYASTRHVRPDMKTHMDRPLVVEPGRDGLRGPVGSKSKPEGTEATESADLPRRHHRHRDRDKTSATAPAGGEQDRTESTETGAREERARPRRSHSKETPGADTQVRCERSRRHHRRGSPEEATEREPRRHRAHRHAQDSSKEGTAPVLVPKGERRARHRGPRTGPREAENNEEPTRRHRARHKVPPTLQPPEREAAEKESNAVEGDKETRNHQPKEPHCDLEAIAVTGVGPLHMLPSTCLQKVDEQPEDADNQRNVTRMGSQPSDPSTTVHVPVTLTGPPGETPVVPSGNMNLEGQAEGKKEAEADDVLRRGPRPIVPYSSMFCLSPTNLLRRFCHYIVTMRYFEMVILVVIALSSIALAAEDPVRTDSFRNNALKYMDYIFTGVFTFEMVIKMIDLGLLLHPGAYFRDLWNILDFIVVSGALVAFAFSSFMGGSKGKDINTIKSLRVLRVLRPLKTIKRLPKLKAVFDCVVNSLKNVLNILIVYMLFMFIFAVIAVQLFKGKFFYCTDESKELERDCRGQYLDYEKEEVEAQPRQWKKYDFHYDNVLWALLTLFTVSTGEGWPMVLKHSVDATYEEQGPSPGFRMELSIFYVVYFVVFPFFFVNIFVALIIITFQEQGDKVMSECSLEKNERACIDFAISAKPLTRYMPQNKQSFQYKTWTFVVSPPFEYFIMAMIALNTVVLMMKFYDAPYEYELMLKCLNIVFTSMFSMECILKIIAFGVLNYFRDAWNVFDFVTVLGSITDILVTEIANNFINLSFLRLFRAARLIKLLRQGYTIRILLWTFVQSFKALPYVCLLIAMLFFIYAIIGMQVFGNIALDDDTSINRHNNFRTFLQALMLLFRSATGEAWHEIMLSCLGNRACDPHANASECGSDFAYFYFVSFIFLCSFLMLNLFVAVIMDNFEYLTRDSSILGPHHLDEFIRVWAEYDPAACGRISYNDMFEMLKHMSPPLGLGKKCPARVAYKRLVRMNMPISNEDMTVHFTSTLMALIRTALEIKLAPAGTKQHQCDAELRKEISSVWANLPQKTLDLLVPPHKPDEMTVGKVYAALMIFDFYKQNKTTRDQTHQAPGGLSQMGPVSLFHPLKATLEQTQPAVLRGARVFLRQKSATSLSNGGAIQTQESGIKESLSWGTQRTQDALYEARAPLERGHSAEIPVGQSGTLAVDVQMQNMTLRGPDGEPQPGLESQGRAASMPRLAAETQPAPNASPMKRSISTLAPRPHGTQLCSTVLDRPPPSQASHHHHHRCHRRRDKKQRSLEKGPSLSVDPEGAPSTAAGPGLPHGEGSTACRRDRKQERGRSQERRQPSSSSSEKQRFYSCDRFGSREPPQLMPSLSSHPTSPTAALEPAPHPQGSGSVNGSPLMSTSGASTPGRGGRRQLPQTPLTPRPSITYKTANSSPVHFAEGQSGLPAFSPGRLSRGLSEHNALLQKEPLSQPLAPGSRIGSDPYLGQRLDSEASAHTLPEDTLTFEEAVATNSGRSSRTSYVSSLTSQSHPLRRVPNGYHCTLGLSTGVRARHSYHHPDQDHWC

Structure (SMILES) | ceiling effect [1] | rank order of potency to inhibit N-type calcium currents [3] | Grip strength, Peak tension (naïve mice (C57Bl/6j) [5]) [g] | Grip strength, Tension/weight (naïve mice (C57Bl/6j) [5]) | recovery from block, 30 min [6] | reversibility of ICa block [6] | side-effects after systemic administration (mice (C57 Bl6)) | Rotarod performance, End rate (naïve mice (C57Bl/6j) [7]) [rpm] | Rotarod performance, Time to fall (naïve mice (C57Bl/6j) [7]) [s] | maximal inhibition relative to CVID [3] | recovery from block in presence of β2a compared to β3 subunits [8] | inhibition of Cav2.2 channel currents (Cav2.2 channel) | inhibition of excitatory monosynaptic transmission [9] | also measured
CSCC[C@@H]1NC(=O)[C@H](CC(C)C)NC(=O)[C@H](CCCCN)NC(=O)[C@H](CO)NC(=O)[C@@H]2CSSC[C@@H]3NC(=O)[C@H](CO)NC(=O)CNC(=O)[C@H](CO)NC(=O)[C@H](CSSC[C@H](N)C(=O)N[C@@H](CCCCN)C(=O)N[C@@H](CO)C(=O)N[C@@H](CCCCN)C(=O)NCC(=O)N[C@@H](C)C(=O)N[C@@H](CCCCN)C(=O)N2)NC(=O)[C@H](CSSC[C@@H](C(N)=O)NC(=O)[C@H](CCCNC(=N)N)NC(=O)CNC(=O)[C@H](C(C)C)NC(=O)[C@H]([C@@H](C)O)NC(=O)CNC(=O)[C@H](CO)NC3=O)NC(=O)[C@H](CC(=O)O)NC(=O)[C@H](Cc2ccc(O)cc2)NC1=O [CVID] (H-CKSKGAKCSKLMYDCCSGSCSGTVGRC-NH2; disulfide 1-16, 8-20, 15-27) | reaching a ceiling effect | least potent | 121 ± 5.7 | 5.7 ± 0.3 | no recovery was observed | completely irreversible; also recorded: no recovery was observed | not accompanied by side-effects such as motor deficits or sedation | 18 ± 1.4 | 40 ± 4.1 |  |  |  |  | effect on automated von Frey and incapacitance measures: incapacitance [1]: both measures appeared to be sensitive to subcutaneous injection of CVID; also recorded: partially reversed; reversal of incapacitance at peak time of action (2 h) [1]: significant reversal; dose at which response reaches a ceiling ([1]; sc): 0.2 mg/kg; peak time of action ([1]; sc): 2 h; selectivity for N-type VGCCs over P/Q-type [2]: higher selectivity for N-type VGCCs over the P/Q-type (Cav2.1); selectivity for N-type calcium channels [2]: high selectivity for N-type calcium channels; Log [IC50] [3]: -7.12 ± 0.04; Maximal Inhibition of ICa [3]: 52 ± 2 % of total; block of high-voltage activated ICa [3]: block of high-voltage activated ICa; inhibition of total ICa (Figure 1B) [3]: about 40%; effect on automated von Frey measure [4]: both measures appeared to be sensitive to subcutaneous injection of CVID; also recorded: partially reversed; Recovery from block [6]: -1 ± 5 % of inhibition; reversibility of inhibition (Cav2.2 channel): irreversible inhibition; antihyperalgesic effects (rat): dose-dependent antihyperalgesic effects; cardiovascular side effects (rat): without serious cardiovascular side effects
CC(C)C[C@@H]1NC(=O)[C@H](CCCNC(=N)N)NC(=O)[C@@H]2CSSC[C@@H]3NC(=O)[C@H](CO)NC(=O)[C@H](C)NC(=O)CNC(=O)[C@H](CCCCN)NC(=O)CNC(=O)[C@H](CCCCN)NC(=O)[C@@H](N)CSSC[C@H](NC(=O)[C@H](CSSC[C@@H](C(N)=O)NC(=O)[C@H](CCCNC(=N)N)NC(=O)CNC1=O)NC(=O)[C@H](CC(=O)O)NC(=O)[C@H](Cc1ccc(O)cc1)NC(=O)[C@H](CO)NC(=O)[C@H]([C@@H](C)O)NC(=O)[C@H](CCCNC(=N)N)NC(=O)[C@H](CCCNC(=N)N)NC3=O)C(=O)N[C@@H]([C@@H](C)O)C(=O)NCC(=O)N[C@@H](CO)C(=O)N2 [CVIF] (H-CKGKGASCRRTSYDCCTGSCRLGRC-NH2; disulfide 1-16, 8-20, 15-25) |  |  | 121 ± 7.7 | 5.4 ± 0.4 |  | partially reversible; also recorded: Partial recovery |  | 17 ± 1.0 | 36 ± 3.0 | very similar to that of CVID | much greater | potently and reversibly inhibited | reversibly inhibited | 
C[C@@H]1NC(=O)CNC(=O)[C@H](CCCCN)NC(=O)CNC(=O)[C@H](CCCCN)NC(=O)[C@@H](N)CSSC[C@@H]2NC(=O)[C@@H]3CSSC[C@@H](C(N)=O)NC(=O)[C@H](CCCNC(=N)N)NC(=O)CNC(=O)[C@H](CO)NC(=O)[C@H](CCCNC(=N)N)NC(=O)[C@H](CSSC[C@H](NC(=O)[C@H](CO)NC1=O)C(=O)N[C@@H](CCCNC(=N)N)C(=O)N[C@@H](CCCNC(=N)N)C(=O)N[C@@H]([C@@H](C)O)C(=O)N[C@@H](CO)C(=O)N[C@@H](Cc1ccc(O)cc1)C(=O)N[C@@H](CC(=O)O)C(=O)N3)NC(=O)[C@H](CO)NC(=O)CNC(=O)[C@H]([C@@H](C)O)NC2=O [CVIE] | not seen with CVIE; also recorded: did not appear to reach a ceiling at the highest dose tested | most potent | 121 ± 6.9 | 5.5 ± 0.3 | no recovery was observed | completely irreversible; also recorded: no recovery was observed | not accompanied by side-effects such as motor deficits or sedation | 17 ± 1.4 | 36 ± 4.1 | very similar to that of CVID | much greater | potently and reversibly inhibited | reversibly inhibited | overall significance of AUC data, doses ([1]; sc): 2.0 mg/kg; potency versus CVID (AUC) ([1]; sc): not CVID at any dose; reversal of incapacitance relative to another peptide (CVIE vs CVID) ([1]; sc): did not reveal any significant differences; also recorded: not significantly greater than CVID; potency at ICa inhibition compared to CVID [3]: more than ten-fold compared to CVID
